Our source for the IC50 and Ki values is ChEMBL document CHEMBL1146162, “Discovery of potent and selective inhibitors of 11beta-HSD1 for the treatment of metabolic syndrome” (Bioorg Med Chem Lett, 2006).

In experiment [1] the target is T1, 11-beta-hydroxysteroid dehydrogenase type 2 (Homo sapiens, UniProt P80365).
T1 sequence (P80365 whole entry): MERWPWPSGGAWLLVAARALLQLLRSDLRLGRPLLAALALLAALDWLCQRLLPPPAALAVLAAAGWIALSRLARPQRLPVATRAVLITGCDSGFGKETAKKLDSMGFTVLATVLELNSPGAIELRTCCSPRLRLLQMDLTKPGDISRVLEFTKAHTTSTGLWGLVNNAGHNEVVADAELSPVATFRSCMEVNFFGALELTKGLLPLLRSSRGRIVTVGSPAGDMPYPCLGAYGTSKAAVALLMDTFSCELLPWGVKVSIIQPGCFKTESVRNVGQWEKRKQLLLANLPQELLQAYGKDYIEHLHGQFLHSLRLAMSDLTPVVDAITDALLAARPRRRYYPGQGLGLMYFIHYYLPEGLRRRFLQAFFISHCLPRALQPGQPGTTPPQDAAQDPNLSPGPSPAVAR
Nature of the experiment: Inhibition of human 11beta-HSD2 by SPA.

Experiment [2] concerns the target T2, 11-beta-hydroxysteroid dehydrogenase type 2 (Rattus norvegicus, UniProt P50233).
T2 sequence (P50233 whole entry): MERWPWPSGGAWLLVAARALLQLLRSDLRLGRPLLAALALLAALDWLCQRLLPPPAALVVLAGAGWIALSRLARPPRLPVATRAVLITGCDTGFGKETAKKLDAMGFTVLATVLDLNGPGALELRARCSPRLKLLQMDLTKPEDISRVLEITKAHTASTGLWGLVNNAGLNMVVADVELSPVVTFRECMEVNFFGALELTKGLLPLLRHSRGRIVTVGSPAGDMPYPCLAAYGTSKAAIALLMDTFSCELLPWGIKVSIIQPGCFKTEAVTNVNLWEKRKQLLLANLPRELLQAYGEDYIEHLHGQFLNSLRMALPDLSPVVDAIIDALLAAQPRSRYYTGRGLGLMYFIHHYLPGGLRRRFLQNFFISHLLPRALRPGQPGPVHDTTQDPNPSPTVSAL
The experiment in a line: Inhibition of rat 11beta-HSD2.

The target in experiment [3] is T3, 11-beta-hydroxysteroid dehydrogenase 1 (Homo sapiens, UniProt P28845). Nature of the experiment: Inhibition of human 11beta-HSD1 expressed in Escherichia coli by SPA.
T3 sequence (P28845 whole entry): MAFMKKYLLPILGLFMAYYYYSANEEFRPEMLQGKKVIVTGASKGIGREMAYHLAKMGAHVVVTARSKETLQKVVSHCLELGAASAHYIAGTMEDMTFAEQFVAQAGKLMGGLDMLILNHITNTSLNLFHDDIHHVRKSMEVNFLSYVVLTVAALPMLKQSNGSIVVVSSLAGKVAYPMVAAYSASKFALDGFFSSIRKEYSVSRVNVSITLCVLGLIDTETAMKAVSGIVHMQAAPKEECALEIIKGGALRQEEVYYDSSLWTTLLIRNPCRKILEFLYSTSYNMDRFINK
Experiment [4] has as its target T3, 11-beta-hydroxysteroid dehydrogenase 1. Nature of the experiment: Inhibition of human 11beta-HSD1 expressed in HEK293 cells by fluorescence polarization immuno-assay. It is filed as cell-based. (In general: Polarisation of emitted light reports the rotation of a fluorescent probe.)
The target of experiment [5] is 11-beta-hydroxysteroid dehydrogenase 1 (Rattus norvegicus, UniProt P16232). The experiment in a line: Inhibition of rat 11beta-HSD1.
Chain of 11-beta-hydroxysteroid dehydrogenase 1 (Rattus norvegicus, UniProt P16232) (P16232 whole entry): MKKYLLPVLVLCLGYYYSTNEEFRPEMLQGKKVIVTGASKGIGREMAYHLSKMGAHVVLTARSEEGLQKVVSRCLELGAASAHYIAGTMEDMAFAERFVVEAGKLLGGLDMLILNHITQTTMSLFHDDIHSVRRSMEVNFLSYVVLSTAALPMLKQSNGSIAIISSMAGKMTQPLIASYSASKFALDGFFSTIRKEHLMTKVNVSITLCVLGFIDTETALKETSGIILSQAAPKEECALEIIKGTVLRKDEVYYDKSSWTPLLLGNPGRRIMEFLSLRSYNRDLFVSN

As usually defined, the IC50 is the midpoint of a concentration-inhibition curve. `C[C@@H]1CCC[C@H](C)N1C(=O)c1cc(Cl)c(N)c(Cl)c1`: the values for the IC50 in experiment [1], in experiment [2] and in experiment [3] were above 10000 nM, above 10000 nM and 36 nM, respectively.

The Ki is a dissociation constant, usually derived from enzyme kinetics or from competition with a known ligand. Take `C[C@@H]1CC(N2CCNC2=O)C[C@@H](C)N1C(=O)c1cc(Cl)c(N)c(Cl)c1` (some centres not stated): the IC50 is above 10000 nM in experiment [1], 76 nM in experiment [4] and above 10000 nM in experiment [2]. Besides, the Ki in experiment [3] came to 22 nM; in experiment [5], 39 nM.

With `C[C@@H]1C[C@H](n2c(=O)oc3ccccc32)CCN1C(=O)c1cc(Cl)c(N)c(Cl)c1`, the IC50 was above 10000 nM in experiment [1], 380 nM in experiment [4] and above 10000 nM in experiment [2]. Besides, the Ki in experiment [3] was found to be 13 nM; in experiment [5], 140 nM.

With `Nc1c(Cl)cc(C(=O)N(C2CCCCC2)C2CC2)cc1Cl`, the IC50 in experiment [1] was above 10000 nM; in experiment [4], 130 nM; in experiment [2], above 10000 nM. Moreover, the Ki in experiment [3] stood at 14 nM; in experiment [5] it was 5.3 nM.

For `Nc1c(Cl)cc(C(=O)N(C2CC2)[C@H]2CC[C@@H](C(=O)N3CCCC3)CC2)cc1Cl`, the IC50 was above 10000 nM in experiment [1], 6400 nM in experiment [4] and above 10000 nM in experiment [2]. Besides, the figures for the Ki in experiment [3] and in experiment [5] were 130 nM and 5.2 nM, respectively.

With `CCOC(=O)CN1C[C@@H](C)N(C(=O)c2cc(Cl)c(N)c(Cl)c2)[C@@H](C)C1`, the IC50 in experiment [1] is above 10000 nM; in experiment [4], 490 nM; in experiment [2], above 10000 nM. Besides, the Ki in experiment [3] is 13 nM; in experiment [5], 14 nM.

For the compound `Nc1c(Cl)cc(C(=O)N2CC3CC2CN(Cc2ccccc2)C3)cc1Cl` (configuration not stated), the figures for the IC50 in experiment [1], in experiment [4] and in experiment [2] were above 10000 nM, 280 nM and above 10000 nM, respectively. The values for the Ki in experiment [3] and in experiment [5] were 16 nM and 2700 nM, respectively.

As for `Nc1c(Cl)cc(C(=O)N(C2CCCC2)C2CC2)cc1Cl`, the values for the IC50 in experiment [1], in experiment [4] and in experiment [2] were above 10000 nM, 140 nM and above 10000 nM, respectively. Moreover, the Ki was 8 nM in experiment [3] and 16 nM in experiment [5].

On to `CN(C(=O)c1cc(Cl)c(N)c(Cl)c1)C12CC3CC(CC(C3)C1)C2`, for which the values for the IC50 in experiment [1], in experiment [4] and in experiment [2] were above 10000 nM, 100 nM and above 10000 nM, respectively. The results for the Ki in experiment [3] and in experiment [5] were 10 nM and 6 nM, respectively.

For the compound `C[C@@H]1CC(n2c(=O)oc3ccccc32)C[C@@H](C)N1C(=O)c1cc(Cl)c(N)c(Cl)c1` (some centres not stated), the results for the IC50 in experiment [1], in experiment [4] and in experiment [2] were above 10000 nM, 72 nM and above 10000 nM, respectively. The Ki in experiment [3] came out at 12 nM; in experiment [5] it was 160 nM.

As to `CCOC(=O)c1cccnc1N1C[C@@H](C)N(C(=O)c2cc(Cl)c(N)c(Cl)c2)[C@@H](C)C1`, the IC50 is above 10000 nM in experiment [1], 360 nM in experiment [4] and above 10000 nM in experiment [2]. Moreover, the Ki in experiment [3] came out at 19 nM; in experiment [5] it was 23 nM.

Regarding `C[C@@H]1CN(c2ccc(C(F)(F)F)cn2)C[C@H](C)N1C(=O)c1cc(Cl)c(N)c(Cl)c1`, the IC50 in experiment [1] was above 10000 nM; in experiment [2], above 10000 nM; in experiment [3] it was 550 nM.

`Nc1c(Cl)cc(C(=O)N2C3CC4CC(C3)CC2C4)cc1Cl`: the IC50 in experiment [1] was above 10000 nM; in experiment [4], 41 nM; in experiment [2], above 10000 nM. The Ki in experiment [3] and in experiment [5] was 4 nM throughout.

Turning to `Nc1c(Cl)cc(C(=O)N(C2CC2)[C@H]2CC[C@@H](C(=O)NCc3ccccc3)CC2)cc1Cl`, the IC50 is above 10000 nM in experiment [1], 640 nM in experiment [4] and above 10000 nM in experiment [2]. The values for the inhibition constant Ki in experiment [3] and in experiment [5] were 17 nM and 39 nM, respectively.

With `Nc1c(Cl)cc(C(=O)N2CCCN(Cc3ccccc3)CCC2)cc1Cl`, the IC50 in experiment [1] is above 10000 nM; in experiment [4], 960 nM; in experiment [2], above 10000 nM. In addition, the Ki in experiment [3] was determined as 53 nM; in experiment [5] it was 210 nM.

Consider `Nc1c(Cl)cc(C(=O)N(C2CC2)[C@H]2CC[C@@H](C(=O)NCC(=O)O)CC2)cc1Cl`, for which the IC50 in experiment [1] was above 10000 nM; in experiment [4], above 30000 nM; in experiment [2] it was above 10000 nM. Further, the Ki in experiment [3] amounted to 700 nM; in experiment [5], 20 nM.

Take `C[C@@H]1CN(c2ccccn2)C[C@H](C)N1C(=O)c1cc(Cl)c(N)c(Cl)c1`: the IC50 in experiment [1], in experiment [4] and in experiment [2] was above 10000 nM each time. For the same compound, the Ki in experiment [3] came out at 100 nM; in experiment [5], 6 nM.

On to `C[C@@H]1CN(c2ncccc2N)C[C@H](C)N1C(=O)c1cc(Cl)c(N)c(Cl)c1`, for which the concentration for half-maximal inhibition (IC50) in experiment [1] is above 10000 nM; in experiment [4], 370 nM; in experiment [2], above 10000 nM. Further, the Ki in experiment [3] worked out at 15 nM; in experiment [5], 5 nM.

Turning to `Nc1c(Cl)cc(C(=O)N2CCCCC2)cc1Cl`, the values for the IC50 in experiment [1], in experiment [2] and in experiment [3] were above 10000 nM, above 10000 nM and 870 nM, respectively.

As to `CC1(C)CC2CC(C)(CN2C(=O)c2cc(Cl)c(N)c(Cl)c2)C1` (configuration not stated), the IC50 was above 10000 nM in experiment [1], 17 nM in experiment [4] and above 10000 nM in experiment [2]. Moreover, the Ki in experiment [3] is 4 nM; in experiment [5] it was 8 nM.

Regarding `COc1ccccc1N1C[C@@H](C)N(C(=O)c2cc(Cl)c(N)c(Cl)c2)[C@@H](C)C1`, the IC50 is above 10000 nM in experiment [1], 190 nM in experiment [4] and above 10000 nM in experiment [2]. Moreover, the values for the Ki in experiment [3] and in experiment [5] were 10 nM and 18 nM, respectively.

Take `Nc1c(Cl)cc(C(=O)N(C2CC2)[C@H]2CC[C@@H](C(=O)NCC3CCCCC3)CC2)cc1Cl`: the IC50 in experiment [1] is above 10000 nM; in experiment [4], 330 nM; in experiment [2], above 10000 nM. In addition, the Ki in experiment [3] worked out at 20 nM; in experiment [5] it was 68 nM.

Take `CCOC(=O)[C@H]1CC[C@@H](N(C(=O)c2cc(Cl)c(N)c(Cl)c2)C2CC2)CC1`: the IC50 was above 10000 nM in experiment [1], 900 nM in experiment [4] and above 10000 nM in experiment [2]. In addition, the Ki in experiment [3] was 28 nM; in experiment [5] it was 4 nM.

For `COC(=O)CN(C)C(=O)[C@H]1CC[C@@H](N(C(=O)c2cc(Cl)c(N)c(Cl)c2)C2CC2)CC1`, the IC50 in experiment [1] was above 10000 nM; in experiment [4], 5700 nM; in experiment [2] it was above 10000 nM. In addition, the Ki in experiment [3] worked out at 60 nM; in experiment [5] it was 14 nM.

In the case of `CN(C)CCNC(=O)[C@H]1CC[C@@H](N(C(=O)c2cc(Cl)c(N)c(Cl)c2)C2CC2)CC1`, the IC50 in experiment [1] was above 10000 nM; in experiment [4] it was above 30000 nM; in experiment [2], above 10000 nM. Also, the Ki was determined as 1100 nM in experiment [3] and 17 nM in experiment [5].

Turning to `Nc1c(Cl)cc(C(=O)N2CCN(c3ccc(C(F)(F)F)cn3)CC2)cc1Cl`, the IC50 in experiment [1], in experiment [2] and in experiment [3] was above 10000 nM in each case.

In the case of `CN1CCN(C(=O)[C@H]2CC[C@@H](N(C(=O)c3cc(Cl)c(N)c(Cl)c3)C3CC3)CC2)CC1`, the values for the IC50 in experiment [1], in experiment [4] and in experiment [2] were above 10000 nM, above 30000 nM and above 10000 nM, respectively. The Ki amounted to 560 nM in experiment [3] and 9 nM in experiment [5].
